In PubChem BioAssay (NCI):
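96-well plates; 48 h exposure; 5 concentrations. Endpoints by linear interpolation between flanking doses. Not reached: highest tested concentration assigned. GI50 is the concentration that inhibits growth by half. TGI is the concentration that stops growth completely.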

Assays:
Test in all cases: DTP human tumour cell line panel, 48 h
A549 NSCLC = system: A549 NSCLC
COLO 205 colon = system: COLO 205 colon
DMS 114 small cell lung = system: DMS 114 small cell lung
HT29 colon = system: HT29 colon
KM20L2 colon = system: KM20L2 colon
OVCAR-4 ovarian = system: OVCAR-4 ovarian
SNB-19 CNS = system: SNB-19 CNS
HOP-62 NSCLC = system: HOP-62 NSCLC
HS 578T breast = system: HS 578T breast
NCI/ADR-RES ovarian = system: NCI/ADR-RES ovarian

| Compound | TGI (A549 NSCLC) | TGI (COLO 205 colon) | TGI (DMS 114 small cell lung) | TGI (HT29 colon) | TGI (KM20L2 colon) | TGI (OVCAR-4 ovarian) | TGI (SNB-19 CNS) | GI50 (A549 NSCLC) | GI50 (COLO 205 colon) | GI50 (HOP-62 NSCLC) | TGI (HOP-62 NSCLC) | GI50 (HS 578T breast) | TGI (HS 578T breast) | GI50 (HT29 colon) | GI50 (NCI/ADR-RES ovarian) | TGI (NCI/ADR-RES ovarian) | GI50 (OVCAR-4 ovarian) | GI50 (SNB-19 CNS) | GI50 (DMS 114 small cell lung) | GI50 (KM20L2 colon) |
| --- | --- | --- | --- | --- | --- | --- | --- | --- | --- | --- | --- | --- | --- | --- | --- | --- | --- | --- | --- | --- |
| O=C(O)C1=CCCc2ccc3ccccc3c21 | > 100 µM | > 100 µM | > 100 µM | > 100 µM | > 100 µM | > 100 µM | > 100 µM |  |  |  |  |  |  |  |  |  |  |  |  |  |
| CC(=O)Nc1ccc(/C=C/C(=O)c2ccccc2)cc1 | 45.4 µM | 28 µM |  | 24.9 µM |  | 45.1 µM | 34.1 µM | 20.5 µM | 14.8 µM | 14.8 µM | 29.3 µM | 5.97 µM | 43.3 µM | 8.29 µM | 17.4 µM | 73.1 µM | 17.2 µM | 13.5 µM |  |  |
| Cc1cc2cc3cc(C)c(N(C)C)cc3[n+](C)c2cc1N(C)C | > 100 µM | 17.5 µM |  | > 100 µM |  | 34.2 µM | > 100 µM | 3.1 µM | 2.51 µM | 6.03 µM | 24.3 µM | 2.35 µM | 14.9 µM | 2.46 µM | 22.4 µM | > 100 µM | 2.83 µM | 4.22 µM |  |  |
| [Cl][Sn]([Cl])([c]1ccccc1)[c]1ccccc1 | 39.2 µM |  | > 100 µM | 30.5 µM | 28 µM | 31 µM | 27.7 µM | 19.8 µM |  |  |  |  |  | 16.1 µM |  |  | 16.8 µM | 14.6 µM | 2.67 µM | 14.8 µM |
| COc1cc(C(=O)N2N=C(c3ccc(S(C)(=O)=O)cc3)CC2c2ccco2)cc(OC)c1OC (stereo not drawn) | > 100 µM | 10.1 µM |  | > 100 µM |  | > 100 µM | > 100 µM | 6.92 µM | 2.27 µM | 26.7 µM | > 100 µM | 5.42 µM | > 100 µM | 3.17 µM | 6.04 µM | > 67.7 µM | 7.45 µM | 5.92 µM |  |  |
| COc1cc2c(cc1O)-c1c(cnn1-c1ccc([N+](=O)[O-])cc1)CCC2 | 42.4 µM | 38.1 µM |  | 35.6 µM |  | > 100 µM | > 100 µM |  |  |  | > 100 µM |  | 81.8 µM |  |  | 42.7 µM |  |  |  |  |
| CCCCOc1ccc(NC(=O)n2nc(N)c3ccccc32)cc1 | > 87.9 µM | 41 µM |  | 26 µM |  | > 100 µM | > 100 µM | 21.6 µM | 18 µM | 24.4 µM | 60.6 µM | 20.7 µM | 53.4 µM | 9.98 µM | 23.9 µM | 71.1 µM | 26.6 µM | 52 µM |  |  |
| CS(=O)(=O)OCC1OC(n2ccc(NC(=O)c3ccccc3)nc2=O)CC1OS(C)(=O)=O (stereo not drawn) | > 100 µM | > 100 µM |  | > 100 µM |  | > 100 µM | > 100 µM |  |  |  | > 100 µM |  | > 100 µM |  |  | > 100 µM |  |  |  |  |
| N#C/C(=N\Nc1ccc(Cl)cc1)C(=O)Nc1cc(-c2ccccc2)nn1-c1ccccc1 | > 100 µM | 4.51 µM |  | > 100 µM |  | 7.62 µM | > 100 µM | 3.2 µM | 2.07 µM | 3.31 µM | > 100 µM | 3 µM | > 100 µM | 3.32 µM | 3.09 µM | > 100 µM | 2.25 µM | 3.17 µM |  |  |
| COc1cc2c3c(n(CCCN(CCN)CCCn4c5c(c6cc(OC)c(OC)cc6c4=O)C(=O)c4cc6c(cc4-5)OCO6)c(=O)c2cc1OC)-c1cc2c(cc1C3=O)OCO2 | > 100 µM | > 57 µM |  | > 37 µM |  | > 83.8 µM | > 100 µM | 2.72 µM | 0.645 µM | 0.33 µM | 1.64 µM | 12.6 µM | > 100 µM | 2.52 µM | 2.22 µM | > 76.1 µM | 13.3 µM | 0.741 µM |  |  |
| O=c1c2ccccc2c(Br)c(Br)c2ccccc12 | 73 µM | 23.7 µM |  | 8.13 µM |  | 80.9 µM | > 100 µM | 20.6 µM | 8.61 µM | 21 µM | 41.9 µM | 11.8 µM | 42.1 µM | 3.04 µM | 16.5 µM | 40.6 µM | 9.24 µM | 45.4 µM |  |  |
| C#CCN(Cc1nc2cc(C(F)(F)F)ccc2nc1-c1ccccc1)c1ccc(OC(F)(F)F)cc1 | > 100 µM | > 100 µM |  | > 100 µM |  | > 100 µM | > 100 µM | 63.8 µM | 45.4 µM | > 100 µM | > 100 µM | > 100 µM | > 100 µM | 40.3 µM | > 100 µM | > 100 µM | > 100 µM | > 100 µM |  |  |
| CC(C)[C@H]1CC[C@H]2[C@@H](CC[C@H]3[C@](C)(CN)CCC[C@]23C)C1 | 4.23 µM | 3.27 µM |  | 3.3 µM |  | 20.3 µM | 12.9 µM | 2.18 µM | 1.74 µM | 1.89 µM | 3.48 µM | 2.45 µM | 6.67 µM | 1.65 µM | 2.08 µM | 3.93 µM | 4.36 µM | 3.19 µM |  |  |
| Cn1cc(C2=C(c3cn(CCO)c4ccccc34)C(=O)NC2=O)c2ccccc21 | > 25 µM | 5.89 µM |  | > 14.9 µM |  | > 25 µM | > 25 µM | 3.05 µM | 1.25 µM | 3.36 µM | > 16.6 µM | 1.49 µM | 14.5 µM | 1.5 µM | 5.6 µM | > 22 µM | 7.83 µM | 7.09 µM |  |  |
| CC/C(=C(/c1ccc(OCCN(C)C)cc1)c1ccc(OC(=O)CCC(=O)c2c(C)[nH]c(/C=C3\N=C(c4ccc[nH]4)C=C3OC)c2C)cc1)c1ccccc1 | 10.6 µM | 7.24 µM |  | 11.1 µM |  | 14.8 µM | 21.8 µM | 2.63 µM | 1.9 µM | 1.49 µM | 4.94 µM | 1.15 µM | 4.72 µM | 0.438 µM | 3.62 µM | 15.9 µM | 1.49 µM | 5.49 µM |  |  |
| N#CC(C(=O)/C(=N/NC(=O)c1ccccc1O)C(C#N)c1ccccc1)c1ccccc1 (stereo not drawn) | > 100 µM | > 100 µM | > 100 µM | > 100 µM | > 100 µM | > 100 µM |  |  |  |  | > 100 µM |  |  |  |  |  |  |  |  |  |
